{"source": "paper PMC11369160", "about": "“An outer membrane porin-lipoprotein complex modulates elongasome movement to establish cell curvature in Rhodospirillum rubrum” (Nature Communications, 2024)", "test_in_all_cases": "microscale thermophoresis", "key": {"[1]": {"target": "T1, OmpA-like peptidoglycan-binding domain of R. rubrum PapS (Rhodospirillum rubrum, UniProt Q2RP23)", "T1 construct": "gene Rru_A3328; isolated C-terminal OmpA-like domain, residues 156-273; His6-SUMO tag cut by Ulp1; E. coli Rosetta(DE3)pLysS; RED-NHS labelled", "T1 sequence (Q2RP23 entry or part of it)": "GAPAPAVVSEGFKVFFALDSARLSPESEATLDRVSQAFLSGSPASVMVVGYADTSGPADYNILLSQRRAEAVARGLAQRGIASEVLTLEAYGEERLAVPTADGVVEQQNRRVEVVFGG", "text": "microscale thermophoresis on OmpA-like peptidoglycan-binding domain of R. rubrum PapS | isolated OmpA-like domain of PapS bound mDAP in vitro, albeit with lower affinity"}, "[2]": {"target": "T2, OmpA-like peptidoglycan-binding domain of R. rubrum PapS (Rhodospirillum rubrum, UniProt Q2RP23, R223A)", "T2 construct": "gene Rru_A3328; isolated C-terminal OmpA-like domain, residues 156-273; His6-SUMO tag cut by Ulp1; E. coli Rosetta(DE3)pLysS; RED-NHS labelled", "T2 sequence (Q2RP23 entry or part of it R223A)": "as the sequence (Q2RP23 entry or part of it) above, with R68A counted along it", "details": "MST buffer 25 mM HEPES/NaOH pH 8, 50 mM NaCl, 0.1% Tween; 25 °C; 100 nM RED-NHS labelled protein; mDAP 1.5 µM to 50 mM"}, "[3]": {"target": "T3, A. baumannii OmpA (OmpA-like peptidoglycan-binding domain) (Acinetobacter baumannii, UniProt Q6RYW5)", "T3 construct": "gene omp38; isolated periplasmic OmpA-like domain, residues 221-339; His6-SUMO tag cut by Ulp1; E. coli Rosetta(DE3)pLysS; RED-NHS labelled", "T3 sequence (Q6RYW5 221-339)": "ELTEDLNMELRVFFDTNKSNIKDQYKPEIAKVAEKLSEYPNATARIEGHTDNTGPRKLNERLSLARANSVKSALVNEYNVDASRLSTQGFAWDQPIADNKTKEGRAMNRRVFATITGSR"}}, "data": [{"smiles": "N[C@H](CCC[C@H](N)C(=O)O)C(=O)O", "note": "[mDAP]", "values": [{"measurement": "Kd", "setting": "[1]", "result": 2500, "unit": "µM"}, {"measurement": "mDAP binding", "setting": "[2]", "result": "In vitro analysis verified that the mutant domain no longer showed mDAP-binding activity"}, {"measurement": "Kd", "setting": "[3]", "result": 9, "unit": "µM"}]}]}
